The values below come from ChEMBL document CHEMBL3992551, “Synthesis and evaluation of N-(benzofuran-5-yl)aromaticsulfonamide derivatives as novel HIF-1 inhibitors that possess anti-angiogenic potential” (Bioorg Med Chem, 2017).

The target of data set [1] is T1, Hypoxia-inducible factor 1-alpha (Homo sapiens, UniProt Q16665). The data set is described as follows: Inhibition of HIF-1alpha (unknown origin) transcriptional activity expressed in human MCF7 cells after 24 hrs under hypoxic condition by HRE luciferase reporter gene assay. Type of data set: cell-based.
Target sequence in this assay (Q16665 whole entry): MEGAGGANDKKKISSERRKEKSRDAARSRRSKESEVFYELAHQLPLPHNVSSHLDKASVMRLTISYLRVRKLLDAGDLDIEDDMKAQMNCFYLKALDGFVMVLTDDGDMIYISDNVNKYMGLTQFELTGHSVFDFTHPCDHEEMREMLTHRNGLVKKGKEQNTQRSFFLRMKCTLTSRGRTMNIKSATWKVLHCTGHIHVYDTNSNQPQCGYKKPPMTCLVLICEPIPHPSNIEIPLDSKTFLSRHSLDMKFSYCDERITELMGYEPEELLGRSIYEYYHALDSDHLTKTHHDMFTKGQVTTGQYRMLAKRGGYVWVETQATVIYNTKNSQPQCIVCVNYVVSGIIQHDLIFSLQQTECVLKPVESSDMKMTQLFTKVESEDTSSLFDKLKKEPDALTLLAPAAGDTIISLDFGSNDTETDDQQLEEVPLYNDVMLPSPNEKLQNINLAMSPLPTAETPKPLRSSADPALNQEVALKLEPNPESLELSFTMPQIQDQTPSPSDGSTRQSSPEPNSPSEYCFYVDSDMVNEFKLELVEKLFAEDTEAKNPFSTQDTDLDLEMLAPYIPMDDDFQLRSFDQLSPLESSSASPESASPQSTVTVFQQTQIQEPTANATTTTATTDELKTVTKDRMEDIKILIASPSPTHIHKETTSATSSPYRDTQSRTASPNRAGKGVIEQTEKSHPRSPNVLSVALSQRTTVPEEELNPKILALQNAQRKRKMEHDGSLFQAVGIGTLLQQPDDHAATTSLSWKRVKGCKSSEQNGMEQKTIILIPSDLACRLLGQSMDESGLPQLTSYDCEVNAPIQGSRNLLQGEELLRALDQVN
Data set [2] concerns MCF7. The data set is described as follows: Cytotoxicity against human MCF7 cells harboring HRE-driven luciferase gene. Type of data set: cell-based.
Data set [3] deals with MCF7. Put plainly: Antiproliferative activity against human MCF7 cells after 72 hrs under hypoxic condition by MTT assay. To be noted: MCF7, 72 h. Type of data set: functional, cell-based.
Another data set relates to MDA-MB-231. The data set is described as follows: Antiproliferative activity against human MDA-MB-231 cells after 72 hrs under hypoxic condition by MTT assay. Type of data set: functional, cell-based. Conditions: MDA-MB-231, 72 h.
The subject of another data set is MDA-MB-468. The data set is described as follows: Antiproliferative activity against human MDA-MB-468 cells after 72 hrs under hypoxic condition by MTT assay. To be noted: MDA-MB-468, 72 h. Type of data set: functional, cell-based.
For data set [4], the system named is MCF7. The data set is described as follows: Downregulation of HIF-1alpha mRNA expression level in human MCF7 cells after 24 hrs under hypoxic condition by RT-PCR method. The format is functional, cell-based.
For data set [5], the system named is MCF7. Put plainly: Downregulation of HIF-1alpha protein expression level in human MCF7 cells after 24 hrs under hypoxic condition by Western blot method. Type of data set: functional, cell-based.
The target of data set [6] is T1, Hypoxia-inducible factor 1-alpha. Put plainly: Inhibition of HIF-1alpha transcriptional activity in human MCF7 cells assessed as reduction in VEGF mRNA level after 24 hrs under hypoxic condition by RT-PCR method. Type of data set: cell-based.
Target sequence in this assay (Q16665 whole entry, looked up): as the sequence (Q16665 whole entry) above
Data set [7] has the same target. The data set is described as follows: Inhibition of HIF-1alpha transcriptional activity in human MCF7 cells assessed as reduction in VEGF secretion after 24 hrs under hypoxic condition by ELISA. The format is cell-based.
The subject of data set [8] is HUVEC. The data set is described as follows: Cytotoxicity against HUVEC assessed as reduction in cell viability at 2.5 to 50 uM after 24 hrs by MTT assay. Type of data set: cell-based. To be noted: human.
The subject of data set [9] is HUVEC. Put plainly: Anti-migratory activity against HUVEC assessed as inhibition of hypoxia-induced cell movement after 24 hrs by wound healing assay. The format is functional, cell-based. Conditions: Homo sapiens.
For data set [10], the system named is HUVEC. The data set is described as follows: Anti-angiogenic activity against HUVEC assessed as inhibition of hypoxia-induced tube formation after 24 hrs by 2-dimensional matrigel assay. The format is functional, cell-based. To be noted: Homo sapiens.
The test system of another data set is Chorioallantoic membrane. The data set is described as follows: Antiangiogenic activity in chicken chorioallantoic membrane assessed as inhibition of hypoxia-induced vessel formation after 3 days. The format is functional. To be noted: Gallus gallus.

With `CCOC(=O)c1oc2ccc(NS(=O)(=O)c3cccnc3)cc2c1C`, the IC50 was 34.1 µM in data set [1], above 200 µM in the data set on MCF7 [3], 141 µM with MDA-MB-231 and 62.9 µM in the data set with MDA-MB-468. The Activity result with MCF7 [2] is reported as “Non-Toxic”.
With `CCOC(=O)c1oc2ccc(NS(=O)(=O)c3ccccc3C)cc2c1C`, the IC50 in [1] worked out at 19.4 µM; in the data set with MCF7 [3], 105 µM; in the data set on MDA-MB-231 it was 89.2 µM; with MDA-MB-468, 53.4 µM. For the same compound, the Activity entry in the data set with MCF7 [2] is given as “Non-Toxic”.
In the case of `CCOC(=O)c1oc2ccc(NS(=O)(=O)c3ccc(Cl)cc3)cc2c1C`, the IC50 in data set [1] was found to be 50 µM; in the data set with MCF7 [3], 81.2 µM; in the data set on MDA-MB-231 it was 53.9 µM; with MDA-MB-468 it was 44 µM. Moreover, the Activity entry in the data set with MCF7 [2] was “Non-Toxic”.
Consider `CCOC(=O)c1oc2ccc(NS(=O)(=O)c3cc(OC)ccc3OC)cc2c1C`, for which the IC50 in data set [1] is 15.5 µM; in the data set on MCF7 [3], 52.3 µM; in the data set on MDA-MB-231, 26.7 µM; in the data set on MDA-MB-468, 20.7 µM. Further, in the data set with MCF7 [2], the Activity entry was “Non-Toxic”.
Regarding `CCOC(=O)c1oc2ccc(NS(=O)(=O)c3ccc4ccccc4c3)cc2c1C`, the IC50 stood at 22.6 µM in data set [1], 20.8 µM with MCF7 [3], 21.6 µM with MDA-MB-231 and 15.7 µM in the data set on MDA-MB-468. The Activity result in the data set on MCF7 [2] is “Non-Toxic”.
With `CCOC(=O)c1oc2ccc(NS(=O)(=O)c3cccs3)cc2c1C`, the IC50 in data set [1] was determined as 45.4 µM; with MCF7 [3], 92.3 µM; in the data set with MDA-MB-231, 44.1 µM; in the data set with MDA-MB-468 it was 34.3 µM. The Activity entry in the data set with MCF7 [2] is recorded as “Non-Toxic”.
For the compound `CCOC(=O)c1oc2ccc(NS(=O)(=O)c3ccc(C(F)(F)F)cc3)cc2c1C`, the IC50 in data set [1] amounted to 41.7 µM; with MCF7 [3], 48.7 µM; with MDA-MB-231, 24.3 µM; in the data set on MDA-MB-468, 27.2 µM. The Activity result in the data set on MCF7 [2] is reported as “Non-Toxic”.
Regarding `CCOC(=O)c1oc2ccc(NS(=O)(=O)c3ccccc3Br)cc2c1C`, the IC50 in data set [1] was determined as 19.9 µM; in the data set on MCF7 [3], 185 µM; in the data set with MDA-MB-231 it was 179 µM; in the data set with MDA-MB-468, 138 µM. Further, in the data set on MCF7 [2], the Activity entry is on record as “Non-Toxic”.
For `CCOC(=O)c1oc2ccc(NS(=O)(=O)c3cccc([N+](=O)[O-])c3)cc2c1C`, the IC50 in data set [1] was found to be 29.4 µM; in the data set on MCF7 [3], 74.8 µM; in the data set with MDA-MB-231, 59.9 µM; in the data set with MDA-MB-468 it was 30.1 µM. The Activity result in the data set on MCF7 [2] is listed as “Non-Toxic”.
Taken in the same sequence, the figures for `CCOC(=O)c1oc2ccc(NS(=O)(=O)c3ccc(Br)cc3)cc2c1C` were 29.9 µM, 56.5 µM, 31.1 µM, 26.4 µM and “Non-Toxic”.
With `CCOC(=O)c1oc2ccc(NS(=O)(=O)c3cccc(Cl)c3)cc2c1C`, the IC50 turned out to be 36.6 µM in data set [1], 83.9 µM with MCF7 [3], 57.3 µM in the data set on MDA-MB-231 and 53.7 µM with MDA-MB-468. Further, in the data set with MCF7 [2], the Activity result is “Non-Toxic”.
`CCOC(=O)c1oc2ccc(NS(=O)(=O)c3ccc(C)cc3)cc2c1C`: the IC50 turned out to be 45.4 µM in data set [1], 53.9 µM with MCF7 [3], 25.2 µM in the data set on MDA-MB-231 and 24 µM with MDA-MB-468. Besides, the Activity entry in the data set on MCF7 [2] is listed as “Non-Toxic”.
The matching figures for `CCOC(=O)c1oc2ccc(NS(=O)(=O)c3cccc(C)c3)cc2c1C`: 32.7 µM, 101 µM, 29.5 µM, 25.3 µM and “Non-Toxic”.
In the case of `CCOC(=O)c1oc2ccc(NS(=O)(=O)c3ccccc3[N+](=O)[O-])cc2c1C`, the IC50 in [1] turned out to be 24.4 µM; in the data set with MCF7 [3], 157 µM; with MDA-MB-231, 80.4 µM; in the data set with MDA-MB-468, 96.9 µM. In addition, the Activity entry in the data set on MCF7 [2] is on record as “Non-Toxic”.
The matching figures for `CCOC(=O)c1oc2ccc(NS(=O)(=O)c3ccccc3C(F)(F)F)cc2c1C`: 16.5 µM, 93.9 µM, 82.4 µM, 74.9 µM and “Non-Toxic”.
As to `CCOC(=O)c1oc2ccc(NS(=O)(=O)c3ccccc3Cl)cc2c1C`, the IC50 in data set [1] is 20.8 µM; with MCF7 [3], above 200 µM; in the data set with MDA-MB-231, above 200 µM; in the data set on MDA-MB-468, 137 µM. The Activity result in the data set with MCF7 [2] is listed as “Non-Toxic”.
On to `CCOC(=O)c1oc2ccc(NS(=O)(=O)c3ccc(C(C)(C)C)cc3)cc2c1C`, for which the IC50 is 27.1 µM in data set [1], 22.1 µM with MCF7 [3], 22.4 µM in the data set on MDA-MB-231 and 8.1 µM in the data set on MDA-MB-468. Further, the Activity entry in the data set on MCF7 [2] is recorded as “Non-Toxic”.
Taken in the same sequence, the figures for `CCOC(=O)c1oc2ccc(NS(=O)(=O)c3cccc(Br)c3)cc2c1C` were 25.6 µM, 57 µM, 33.7 µM, 30.7 µM and “Non-Toxic”.
In the case of `CCOC(=O)c1oc2ccc(NS(=O)(=O)c3ccc(OC)c(OC)c3)cc2c1C`, the IC50 was 12.5 µM in [1]; 52 µM in the data set with MCF7 [3]; 35.4 µM in the data set on MDA-MB-231; 20.5 µM in the data set on MDA-MB-468; 18.8 µM in [7]. In addition, the Activity entry in the data set with MCF7 [2] is “Non-Toxic”; in the data set with MCF7 [4] it was “Dose-dependent effect”; with MCF7 [5], “Dose-dependent effect”; in the data set on HUVEC [8], “Non-Toxic”. Also, the inhibition result (in data set [6]; in data set [7]; with HUVEC [9]; in the data set on HUVEC [10]; in the data set with Chorioallantoic membrane) was “Dose-dependent effect” each time.
`CCOC(=O)c1oc2ccc(NS(=O)(=O)c3ccc([N+](=O)[O-])cc3)cc2c1C`: the IC50 in [1] was determined as 36.2 µM; in the data set with MCF7 [3], 69.6 µM; in the data set on MDA-MB-231, 33.1 µM; in the data set with MDA-MB-468, 24 µM. The Activity result in the data set on MCF7 [2] was “Non-Toxic”.
For `CCOC(=O)c1oc2ccc(NS(=O)(=O)c3cccc(C(F)(F)F)c3)cc2c1C`, the IC50 in data set [1] was found to be 36.3 µM; in the data set on MCF7 [3], 51.4 µM; in the data set on MDA-MB-231, 30.2 µM; in the data set with MDA-MB-468, 28.9 µM. In the data set with MCF7 [2], the Activity entry was “Non-Toxic”.
